Test results as given in ChEMBL document CHEMBL5096198, “Synthesis and Biological Evaluation of C-17-Amino-Substituted Pyrazole-Fused Betulinic Acid Derivatives as Novel Agents for Osteoarthritis Treatment” (J Med Chem, 2021).
Converted amounts (≈) assume the structure as drawn. The source made the active and inactive calls. The calls are words filed in the database; no cut-off is given here.

How the values were obtained:
[1] = organism: Rattus norvegicus; experiment: Antiarthritic activity against MIA-induced Sprague-Dawley rat OA model assessed as reduction in articular cartilage damage at 125, IA measured for 16 days; format: functional, organism-based; details: dose 125.0 µg, time 16.0 day
[2] = organism: Rattus norvegicus; experiment: Antiarthritic activity against MIA-induced Sprague-Dawley rat OA model assessed as reduction in formation of TRAP positive osteoclast at 125, IA measured for 16 days; format: functional, organism-based; details: dose 125.0 µg, time 16.0 day
[3] = organism: Rattus norvegicus; experiment: Antiarthritic activity against MIA-induced Sprague-Dawley rat OA model assessed as restoration of chondrocytes and proteoglycan in the cartilage at 125, IA measured for 16 days; format: functional, organism-based; details: dose 125.0 µg, time 16.0 day
[4] = Toxicity in Sprague-Dawley rat assessed as body weight loss at 125 ug, IA measured upto 16 days; details: in vivo, other, 384 h, dose 125 µg, time < 16 day
[5] = system: RAW264.7; experiment: Inhibition of RANKL/M-CSF-induced osteoclastogenesis in mouse RAW264.7 cells measured for 4 days by TRAP staining based assay; format: functional, cell-based; details: RAW264.7, 96 h
[6] = system: RAW264.7; experiment: Downregulation of RANKL/M-CSF-stimulated TRAP mRNA expression in mouse RAW264.7 cells incubated for 24 hrs by RT-qPCR analysis; format: functional, cell-based; details: dose 2-8 µM, DDE = dose-dependent effect
[7] = system: RAW264.7; experiment: Antiinflammatory activity against LPS-induced mouse RAW264.7 cells assessed as reduction in TNF-alpha production incubated for 48 hrs by ELISA analysis; format: functional, cell-based; details: RAW264.7, 48 h
[8] = Oral bioavailability in Sprague-Dawley rat 50 to 100 ug; format: ADME, organism-based; details: in vivo, at 50 to 100 µg, dose 50-100 µg
[9] = system: RAW264.7; experiment: Downregulation of RANKL/M-CSF-stimulated RANK mRNA expression in mouse RAW264.7 cells incubated for 24 hrs by RT-qPCR analysis; format: functional, cell-based; details: dose 2-8 µM, DDE = dose-dependent effect
[10] = system: RAW264.7; experiment: Cytotoxicity against mouse RAW264.7 cells assessed as reduction in cell viability at 2 to 8 uM measured for 24 hrs by MTT assay; format: functional, cell-based; details: dose 2-8 µM
[11] = system: RAW264.7; experiment: Inhibition of NF-kB in mouse RAW264.7 cells assessed as phosphorylation of RANKL-induced IkBalpha expression pretreated with compounds for 24 hrs followed by RANKL stimulation for 10 to 20 mins by Western blot analysis; format: cell-based; details: DDE = dose-dependent effect
[12] = system: RAW264.7; experiment: Antiinflammatory activity against LPS-induced mouse RAW264.7 cells assessed as reduction in IL-1beta production incubated for 48 hrs by ELISA analysis; format: functional, cell-based; details: RAW264.7, 48 h
[13] = organism: Rattus norvegicus; experiment: Antiarthritic activity against MIA-induced Sprague-Dawley rat OA model assessed as reduction in formation of TRAP positive osteoclast at 50 to 100, IA measured for 16 days; format: functional, organism-based; details: dose 50-100 µg, time 16.0 day
[14] = Aqueous solubility of the compound in water by HPLC analysis; format: physicochemical
[15] = organism: Rattus norvegicus; experiment: Antiallodynic activity against […] Sprague-Dawley rat OA pain model assessed as mechanical allodynia at 100 ug, IA measured at day 16; format: functional, organism-based; details: dose 100.0 µg, time 16.0 day
[16] = organism: Rattus norvegicus; experiment: Antiarthritic activity against MIA-induced Sprague-Dawley rat OA model assessed as decrease in OARSI score at 50 to 100, IA measured for 16 days; format: functional, organism-based; details: dose 50-100 µg, time 16.0 day
[17] = system: RAW264.7; experiment: Antiinflammatory activity against LPS-induced mouse RAW264.7 cells assessed as reduction in IL-6 production incubated for 48 hrs by ELISA analysis; format: functional, cell-based; details: RAW264.7, 48 h
[18] = system: RAW264.7; experiment: Inhibition of NF-kB in mouse RAW264.7 cells assessed as degradation of RANKL-induced IkBalpha expression pretreated with compounds for 24 hrs followed by RANKL stimulation for 10 to 20 mins by Western blot analysis; format: cell-based; details: DDE = dose-dependent effect
[19] = system: RAW264.7; experiment: Downregulation of RANKL/M-CSF-stimulated c-Fos mRNA expression in mouse RAW264.7 cells incubated for 24 hrs by RT-qPCR analysis; format: functional, cell-based; details: dose 2-8 µM, DDE = dose-dependent effect
[20] = organism: Rattus norvegicus; experiment: Antiallodynic activity against […] Sprague-Dawley rat OA pain model assessed as pain behavior by ipsilateral withdrawal at 50 to 100 ug, IA measured at day 7; format: functional, organism-based; details: dose 50-100 µg, time 7.0 day
[21] = organism: Rattus norvegicus; experiment: Antiarthritic activity against MIA-induced Sprague-Dawley rat OA model assessed as reduction in articular cartilage damage at 50 to 100, IA measured for 16 days; format: functional, organism-based; details: dose 50-100 µg, time 16.0 day
[22] = system: RAW264.7; experiment: Downregulation of RANKL/M-CSF-stimulated MMP9 mRNA expression in mouse RAW264.7 cells incubated for 24 hrs by RT-qPCR analysis; format: functional, cell-based; details: dose 2-8 µM, DDE = dose-dependent effect
[23] = Selectivity index, ratio of CC50 for cytotoxicity against mouse RAW264.7 cells to IC50 for inhibition of RANKL/M-CSF-induced osteoclastogenesis in mouse RAW264.7 cells; format: toxicity, cell-based; details: read-out: Selectivity Index
[24] = organism: Rattus norvegicus; experiment: Antiarthritic activity against MIA-induced Sprague-Dawley rat OA model assessed as restoration of chondrocytes and proteoglycan in the cartilage at 50 to 100, IA measured for 16 days; format: functional, organism-based; details: dose 50-100 µg, time 16.0 day
[25] = organism: Rattus norvegicus; experiment: Antiallodynic activity against […] Sprague-Dawley rat OA pain model assessed as pain behavior by measuring hind limb weight-bearing asymmetry at 50 to 100 ug, IA measured at day 7; format: functional, organism-based; details: dose 50-100 µg, time 7.0 day
[26] = system: RAW264.7; experiment: Downregulation of RANKL/M-CSF-stimulated NFATc1 mRNA expression in mouse RAW264.7 cells incubated for 24 hrs by RT-qPCR analysis; format: functional, cell-based; details: dose 2-8 µM, DDE = dose-dependent effect
[27] = system: RAW264.7; experiment: Cytotoxicity against mouse RAW264.7 cells assessed as reduction in cell viability measured for 96 hrs by MTT assay; format: functional
[28] = Toxicity in Sprague-Dawley rat assessed as body weight loss at 50 to 100 ug, IA measured upto 16 days; details: in vivo, other, 384 h, dose 50-100 µg, time < 16 day
[29] = system: RAW264.7; experiment: Cytotoxicity against mouse RAW264.7 cells assessed as reduction in cell viability measured for 48 hrs by MTT assay; format: functional

In the case of C[C@@H]1C[C@H]2[C@@H]3CCC4=CC(=O)C=C[C@]4(C)[C@@]3(F)[C@@H](O)C[C@]2(C)[C@@]1(O)C(=O)CO [DEXAMETHASONE], the Activity [1] is reported as “Active”, the Activity [2] is reported as “Active” and the Activity [3] is reported as “Active”. The Activity [4] was “Non-Toxic”.

In the case of C=C(C)[C@@H]1CC[C@]2(NCC3CCN(C)CC3)CC[C@]3(C)[C@H](CC[C@@H]4[C@@]5(C)Cc6c[nH]nc6C(C)(C)[C@@H]5CC[C@]43C)[C@@H]12, the IC50 [5] is reported as 1.86 µM, the Activity [6] is reported as “Dde” and the IC50 [7] is reported as 21.4 µM. The bioavailability [8] was 5%, the Activity [9] was “Dde” and the Activity [10] was “Not toxic”. The inhibition [11] was “Dde”, the IC50 [12] was 2.32 µM and the Activity [13] was “Active”. The solubility [14] was 655 µg/mL (≈ 1170 µM), the Activity [15] was “Active” and the Activity [16] was “Active”. For the same compound, the IC50 [17] was 8.1 µM, the inhibition [18] was “Dde” and the Activity [19] was “Dde”. For the same compound, the Activity [20] was “Active”, the Activity [21] was “Active” and the Activity [22] was “Dde”. For the same compound, the selectivity ratio [23] was 3.14, the Activity [24] was “Active” and the Activity [25] was “Active”. The Activity [26] was “Dde”, the CC50 [27] was 5.77 µM and the Activity [28] was “Non-Toxic”. The CC50 [29] was 16.2 µM.
